# System: patients suffering from MCI
# Assay: InDDEx (ENA713B IA07) clinical trial: conversion from MCI to AD
# Type: in vivo, human
# From the text: Introduction and summary. The purpose of this EXAMPLE is to describe genetic association studies identifying twenty-five (25) AD-associated mutations of the invention. Genome-wide analyses for genetic association studies have only become possible within the past two years. The Investigation Into Delay to Diagnosis of Alzheimer's Disease With Exelon (InDDex; ENA713B IA07) clinical trial followed patients suffering from MCI and given either Exelon (rivastigmine) at various doses or placebo and followed their conversion to AD.
smiles,measurement,setting,value
"CCN(C)C(=O)Oc1cccc([C@H](C)N(C)C)c1 [Exelon, rivastigmine]","Converted to AD, %","All patients (enrolled in and completed the clinical study), Exelon arm n = 508",17.32%
same,"Converted to AD, %","Genome scan population (consented for pharmacogenetic study and passed the 100K scan), Exelon arm n = 211",17.06%

# Reference: patent US20100249107A1, “Biomarkers for Alzheimer's Disease Progression” (priority 2006, published 2010)
